Biological target: TYK2 (Homo sapiens, UniProt P29597)
Test: TYK2 protein degradation in MOLT-4 cells by immunoblotting
Type: cell-based
Parameters: endogenous in cells; host or cells: MOLT-4
Conditions: MOLT-4 cells, 24 hours
Experimental: MOLT-4 cells were treated with compounds at 0.5 and 5 μM concentrations for 24 hours.
MOLT-4 cells were treated with CPD-038, CPD-039, and CPD-040 at 0.04, 0.2, 1, and 5 μM concentrations for 24 hours.
MOLT-4 or NOMO-1 cells were cultured at 37° C. with 5% CO2 in RPMI 1640 Medium supplemented with 10% fetal bovine serum. Cells were authenticated using the short tandem repeat (STR) assays. Mycoplasma test results were negative.
Cultured cells were washed with cold PBS once and lysed in cold RIPA buffer supplemented with protease inhibitors and phosphatase inhibitors (Beyotime Biotechnology). The solutions were then incubated at 4° C. for 30 minutes with gentle agitation to fully lyse cells. Cell lysates were centrifuged at 13,000 rpm for 10 minutes at 4° C. and pellets were discarded. Total protein concentrations in the lysates were determined by BCA assays (Beyotime Biotechnology). Cell lysates were mixed with Laemmli loading buffer to 1× and heated at 99° C. for 5 min. Proteins were resolved on SDS-PAGE and visualized by chemiluminescence. Images were taken by a ChemiDoc MP Imaging system (Bio-Rad). Protein bands were quantitated using the accompanied software provided by Bio-Rad.
The percentage of TYK2 protein degradation of each compound at 0.5 and 5 μM determined in MOLT-4 cells as described in Methods.

Chain of TYK2 (P29597 whole entry): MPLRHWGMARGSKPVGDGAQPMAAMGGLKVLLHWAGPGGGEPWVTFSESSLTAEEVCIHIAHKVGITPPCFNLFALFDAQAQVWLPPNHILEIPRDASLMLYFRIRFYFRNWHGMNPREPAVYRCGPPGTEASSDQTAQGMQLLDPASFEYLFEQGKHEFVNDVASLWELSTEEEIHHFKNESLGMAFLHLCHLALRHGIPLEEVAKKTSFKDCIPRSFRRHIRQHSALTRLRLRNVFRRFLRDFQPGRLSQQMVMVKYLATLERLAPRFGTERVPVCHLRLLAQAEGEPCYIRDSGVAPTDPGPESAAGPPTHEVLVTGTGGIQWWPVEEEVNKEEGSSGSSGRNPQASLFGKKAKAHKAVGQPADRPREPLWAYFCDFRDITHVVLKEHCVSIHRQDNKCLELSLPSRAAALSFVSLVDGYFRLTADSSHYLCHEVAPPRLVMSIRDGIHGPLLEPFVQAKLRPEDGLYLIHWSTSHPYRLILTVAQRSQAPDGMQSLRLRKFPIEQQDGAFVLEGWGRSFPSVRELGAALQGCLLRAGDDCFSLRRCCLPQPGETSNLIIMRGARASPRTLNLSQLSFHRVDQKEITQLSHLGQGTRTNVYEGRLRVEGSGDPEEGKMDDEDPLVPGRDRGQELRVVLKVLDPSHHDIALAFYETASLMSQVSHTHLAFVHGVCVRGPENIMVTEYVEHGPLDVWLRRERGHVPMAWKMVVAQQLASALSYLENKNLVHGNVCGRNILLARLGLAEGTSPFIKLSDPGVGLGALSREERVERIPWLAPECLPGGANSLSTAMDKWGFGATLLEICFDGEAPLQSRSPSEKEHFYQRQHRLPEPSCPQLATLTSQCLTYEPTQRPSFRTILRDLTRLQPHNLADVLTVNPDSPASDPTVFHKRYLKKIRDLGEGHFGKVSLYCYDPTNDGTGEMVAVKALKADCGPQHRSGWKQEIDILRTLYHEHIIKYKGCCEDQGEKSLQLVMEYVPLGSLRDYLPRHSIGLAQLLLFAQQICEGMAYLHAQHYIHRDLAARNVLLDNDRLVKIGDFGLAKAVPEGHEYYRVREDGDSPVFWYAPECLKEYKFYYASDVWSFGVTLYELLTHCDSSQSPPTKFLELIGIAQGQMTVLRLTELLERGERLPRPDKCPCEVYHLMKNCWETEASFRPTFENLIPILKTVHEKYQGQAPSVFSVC

| Compound | TYK2 Degradation (0.5 μM) [%] | TYK2 Degradation (MOLT-4, 0.5 μM) | TYK2 Degradation (MOLT-4, 5 μM) | TYK2 Degradation (5 μM) [%] |
| --- | --- | --- | --- | --- |
| CNC(=O)c1nnc(NC(=O)C2CC2)cc1Nc1cccc(-c2ncn(CCNC(=O)CCOCCOCCOCCNc3cccc4c3C(=O)N(C3CCC(=O)NC3=O)C4=O)n2)c1OC (centres unmarked) [CPD-010, 6-(Cyclopropanecarboxamido)-4-((3-(1-(1-((2-(2,6-dioxopiperidin-3-yl)-1,3-dioxoisoindolin-4-yl)amino)-12-oxo-3,6,9-trioxa-13-azapentadecan-15-yl)-1H-1,2,4-triazol-3-yl)-2-methoxyphenyl)amino)-N-methylpyridazine-3-carboxamide] | ≤20 | – | – | – |
| CNC(=O)c1nnc(NC(=O)CNC(=O)CCOc2cc(-c3scnc3C)ccc2CNC(=O)[C@@H]2C[C@@H](O)CN2C(=O)[C@@H](NC(=O)C2(F)CC2)C(C)(C)C)cc1Nc1cccc(-c2ncn(C)n2)c1OC [CPD-102, 6-(2-(3-(2-(((2S,4R)-1-((S)-2-(1-Fluorocyclopropane-1-carboxamido)-3,3-dimethylbutanoyl)-4-hydroxypyrrolidine-2-carboxamido)methyl)-5-(4-methylthiazol-5-yl)phenoxy)propanamido)acetamido)-4-((2-methoxy-3-(1-methyl-1H-1,2,4-triazol-3-yl)phenyl)amino)-N-methylpyridazine-3-carboxamide] | – | C (C: ≤20% TYK2 degradation) | C (C: ≤20% TYK2 degradation) | – |
| CNC(=O)c1nnc(NC(=O)CNC(=O)CCCCCCNc2cccc3c2C(=O)N(C2CCC(=O)NC2=O)C3=O)cc1Nc1cccc(-c2ncn(C)n2)c1OC (centres unmarked) [CPD-047, 6-(2-(7-((2-(2,6-dioxopiperidin-3-yl)-1,3-dioxoisoindolin-4-yl)amino)heptanamido)acetamido)-4-((2-methoxy-3-(1-methyl-H-1,2,4-triazol-3-yl)phenyl)amino)-N-methylpyridazine-3-carboxamide] | 60 | – | – | ≤20 |
| CNC(=O)c1nnc(NC(=O)CNC(=O)CCCNC(=O)C[C@H](NC(=O)[C@@H]2C[C@@H](O)CN2C(=O)[C@@H](NC(=O)C2(F)CC2)C(C)(C)C)c2ccc(-c3scnc3C)cc2)cc1Nc1cccc(-c2ncn(C)n2)c1OC [CPD-088, 6-(2-(4-((S)-3-((2S,4R)-1-((S)-2-(1-Fluorocyclopropane-1-carboxamido)-3,3-dimethylbutanoyl)-4-hydroxypyrrolidine-2-carboxamido)-3-(4-(4-methylthiazol-5-yl)phenyl)propanamido)butanamido)acetamido)-4-((2-methoxy-3-(1-methyl-1H-1,2,4-triazol-3-yl)phenyl)amino)-N-methylpyridazine-3-carboxamide] | – | C (C: ≤20% TYK2 degradation) | – | – |
| CNC(=O)c1nnc(NC(=O)CNC(=O)CCOCCOCCOCCNc2cccc3c2C(=O)N(C2CCC(=O)NC2=O)C3=O)cc1Nc1cccc(-c2ncn(C)n2)c1OC (centres unmarked) [CPD-051, 6-(1-((2-(2,6-Dioxopiperidin-3-yl)-1,3-dioxoisoindolin-4-yl)amino)-12-oxo-3,6,9-trioxa-13-azapentadecan-15-amido)-4-((2-methoxy-3-(1-methyl-1H-1,2,4-triazol-3-yl)phenyl)amino)-N-methylpyridazine-3-carboxamide] | ≤20 | – | – | ≤20 |
| CNC(=O)c1nnc(NC(=O)C2CC2)cc1Nc1cccc(-c2ncn(CCNC(=O)CNc3cccc4c3C(=O)N(C3CCC(=O)NC3=O)C4=O)n2)c1OC (centres unmarked) [CPD-001, 6-(Cyclopropanecarboxamido)-4-((3-(1-(2-(2-((2-(2,6-dioxopiperidin-3-yl)-1,3-dioxoisoindolin-4-yl)amino)acetamido)ethyl)-1H-1,2,4-triazol-3-yl)-2-methoxyphenyl)amino)-N-methylpyridazine-3-carboxamide] | ≤20 | – | – | – |
| CNC(=O)c1nnc(NC(=O)CNC(=O)CCCCCCNC(=O)C[C@H](NC(=O)[C@@H]2C[C@@H](O)CN2C(=O)[C@@H](NC(=O)C2(F)CC2)C(C)(C)C)c2ccc(-c3scnc3C)cc2)cc1Nc1cccc(-c2ncn(C)n2)c1OC [CPD-091, 6-(2-(7-((S)-3-((2S,4R)-1-((S)-2-(1-Fluorocyclopropane-1-carboxamido)-3,3-dimethylbutanoyl)-4-hydroxypyrrolidine-2-carboxamido)-3-(4-(4-methylthiazol-5-yl)phenyl)propanamido)heptanamido)acetamido)-4-((2-methoxy-3-(1-methyl-1H-1,2,4-triazol-3-yl)phenyl)amino)-N-methylpyridazine-3-carboxamide] | – | C (C: ≤20% TYK2 degradation) | C (C: ≤20% TYK2 degradation) | – |
| CNC(=O)c1nnc(NC(=O)CNC(=O)COCCOCCOCCOCCOCC(=O)N[C@H](C(=O)N2C[C@H](O)C[C@H]2C(=O)NCc2ccc(-c3scnc3C)cc2)C(C)(C)C)cc1Nc1cccc(-c2ncn(C)n2)c1OC [CPD-032, N^1—((S)-1-((2S,4R)-4-Hydroxy-2-((4-(4-methylthiazol-5-yl)benzyl)carbamoyl)pyrrolidin-1-yl)-3,3-dimethyl-1-oxobutan-2-yl)-N^17-(2-((5-((2-methoxy-3-(1-methyl-1H-1,2,4-triazol-3-yl)phenyl)amino)-6-(methylcarbamoyl)pyridazin-3-yl)amino)-2-oxoethyl)-3,6,9,12,15-pentaoxaheptadecanediamide] | ≤20 | – | – | ≤20 |
| CNC(=O)c1nnc(NC(=O)C2CC2)cc1Nc1cccc(-c2ncn(CCNC(=O)CCOCCC(=O)N[C@H](C(=O)N3C[C@H](O)C[C@H]3C(=O)NCc3ccc(-c4scnc4C)cc3)C(C)(C)C)n2)c1OC [CPD-067, 6-(Cyclopropanecarboxamido)-4-((3-(1-(2-(3-(3-(((S)-1-((2S,4R)-4-hydroxy-2-((4-(4-methylthiazol-5-yl)benzyl)carbamoyl)pyrrolidin-1-yl)-3,3-dimethyl-1-oxobutan-2-yl)amino)-3-oxopropoxy)propanamido)ethyl)-1H-1,2,4-triazol-3-yl)-2-methoxyphenyl)amino)-N-methylpyridazine-3-carboxamide] | ≤20 | – | – | ≤20 |
| CNC(=O)c1nnc(NC(=O)C2CC2)cc1Nc1cccc(-c2ncn(CCNC(=O)CCNc3ccc4c(c3)C(=O)N(C3CCC(=O)NC3=O)C4=O)n2)c1OC (centres unmarked) [CPD-014, 6-(Cyclopropanecarboxamido)-4-((3-(1-(2-(3-((2-(2,6-dioxopiperidin-3-yl)-1,3-dioxoisoindolin-5-yl)amino)propanamido)ethyl)-1H-1,2,4-triazol-3-yl)-2-methoxyphenyl)amino)-N-methylpyridazine-3-carboxamide] | ≤20 | – | – | – |
| CNC(=O)c1nnc(NC(=O)CNC(=O)CCOCCOCCOCCC(=O)N[C@H](C(=O)N2C[C@H](O)C[C@H]2C(=O)NCc2ccc(-c3scnc3C)cc2)C(C)(C)C)cc1Nc1cccc(-c2ncn(C)n2)c1OC [CPD-030, 6-((S)-18-((2S,4R)-4-Hydroxy-2-((4-(4-methylthiazol-5-yl)benzyl)carbamoyl)pyrrolidine-1-carbonyl)-19,19-dimethyl-4,16-dioxo-7,10,13-trioxa-3,17-diazaicosanamido)-4-((2-methoxy-3-(1-methyl-1H-1,2,4-triazol-3-yl)phenyl)amino)-N-methylpyridazine-3-carboxamide] | ≤20 | – | – | ≤20 |
| CNC(=O)c1nnc(NC(=O)C2CC2)cc1Nc1cccc(-c2ncn(CCNC(=O)CCOCCOCCOCCNc3ccc4c(c3)C(=O)N(C3CCC(=O)NC3=O)C4=O)n2)c1OC (centres unmarked) [CPD-020, 6-(Cyclopropanecarboxamido)-4-((3-(1-(1-((2-(2,6-dioxopiperidin-3-yl)-1,3-dioxoisoindolin-5-yl)amino)-12-oxo-3,6,9-trioxa-13-azapentadecan-15-yl)-1H-1,2,4-triazol-3-yl)-2-methoxyphenyl)amino)-N-methylpyridazine-3-carboxamide] | ≤20 | – | – | – |
| CNC(=O)c1nnc(NC(=O)CNC(=O)CCCCCCOc2cc(-c3scnc3C)ccc2CNC(=O)[C@@H]2C[C@@H](O)CN2C(=O)[C@@H](NC(=O)C2(F)CC2)C(C)(C)C)cc1Nc1cccc(-c2ncn(C)n2)c1OC [CPD-106, 6-(2-(7-(2-(((2S,4R)-1-((S)-2-(1-Fluorocyclopropane-1-carboxamido)-3,3-dimethylbutanoyl)-4-hydroxypyrrolidine-2-carboxamido)methyl)-5-(4-methylthiazol-5-yl)phenoxy)heptanamido)acetamido)-4-((2-methoxy-3-(1-methyl-1H-1,2,4-triazol-3-yl)phenyl)amino)-N-methylpyridazine-3-carboxamide] | – | C (C: ≤20% TYK2 degradation) | C (C: ≤20% TYK2 degradation) | – |
| CNC(=O)c1nnc(NC(=O)CNC(=O)CCCCCCCNC(=O)C[C@H](NC(=O)[C@@H]2C[C@@H](O)CN2C(=O)[C@@H](NC(=O)C2(F)CC2)C(C)(C)C)c2ccc(-c3scnc3C)cc2)cc1Nc1cccc(-c2ncn(C)n2)c1OC [CPD-092, 6-(2-(8-((S)-3-((2S,4R)-1-((S)-2-(1-Fluorocyclopropane-1-carboxamido)-3,3-dimethylbutanoyl)-4-hydroxypyrrolidine-2-carboxamido)-3-(4-(4-methylthiazol-5-yl)phenyl)propanamido)octanamido)acetamido)-4-((2-methoxy-3-(1-methyl-1H-1,2,4-triazol-3-yl)phenyl)amino)-N-methylpyridazine-3-carboxamide] | – | C (C: ≤20% TYK2 degradation) | C (C: ≤20% TYK2 degradation) | – |

From patent US20240059671A1, “TYROSINE KINASE 2 (TYK2) DEGRADATION COMPOUNDS AND METHODS OF USE” (CULLGEN (SHANGHAI), INC., priority 2020, published 2024)
